Experimental data taken from ChEMBL document CHEMBL3885881, “DrugMatrix”.

Species: Rattus norvegicus
Test: DrugMatrix - Regimen: Daily Repeat
Type: toxicity, organism-based, Sprague-Dawley
Parameters: regimen Daily Repeat, gender Male, age 6-8 weeks
Details: in vivo, po, route oral GAVAGE, vehicle 100 % WATER; for ABSOLUTE BASOPHIL / ABSOLUTE EOSINOPHIL / ABSOLUTE LYMPHOCYTE / ABSOLUTE MONOCYTE / ABSOLUTE SEGMENTED NEUTROPHIL / BASOPHIL / EOSINOPHIL / ERYTHROCYTE COUNT / HEMATOCRIT / HEMOGLOBIN / LEUKOCYTE COUNT / LYMPHOCYTE / MEAN CORPUSCULAR HEMOGLOBIN / MEAN CORPUSCULAR HEMOGLOBIN CONCENTRATION / MEAN CORPUSCULAR VOLUME / MONOCYTE / NEUTROPHIL / NUCLEATED RED BLOOD CELLS / PLATELET COUNT: tissue Blood; for ALANINE AMINOTRANSFERASE / ALBUMIN / ALKALINE PHOSPHATASE / ASPARTATE AMINOTRANSFERASE / BLOOD UREA NITROGEN / CARBON DIOXIDE / CHLORIDE / CHOLESTEROL / CREATINE PHOSPHOKINASE / CREATININE / GLUCOSE / LACTATE DEHYDROGENASE / LIPASE / PHOSPHORUS / POTASSIUM / SODIUM / TOTAL BILIRUBIN / TOTAL PROTEIN / URIC ACID: tissue Plasma
[1] = 30 mg/kg, 72 h, dose level Low, time 3 day
[2] = 30 mg/kg, 120 h, dose level Low, time 5 day
[3] = 1000 mg/kg, 72 h, dose level High, time 3 day
[4] = 1000 mg/kg, 120 h, dose level High, time 5 day

## CCCCc1nc(Cl)c(CO)n1Cc1ccc(-c2ccccc2-c2nn[nH]n2)cc1 [LOSARTAN]
[1]
  ABSOLUTE BASOPHIL: 0 CELLS/uL
  ABSOLUTE EOSINOPHIL: 0 CELLS/uL
  ABSOLUTE LYMPHOCYTE: 14016.67 CELLS/uL
  ABSOLUTE MONOCYTE: 389.33 CELLS/uL
  ABSOLUTE SEGMENTED NEUTROPHIL: 894 CELLS/uL
  BASOPHIL: 0%
  EOSINOPHIL: 0%
  ERYTHROCYTE COUNT: 5.45 x10E6/uL
  HEMATOCRIT: 35.03%
  HEMOGLOBIN: 13.17 G/DL
  LEUKOCYTE COUNT: 15.3 x10E3/uL
  LYMPHOCYTE: 91.33%
  MEAN CORPUSCULAR HEMOGLOBIN: 24.17 pg
  MEAN CORPUSCULAR HEMOGLOBIN CONCENTRATION: 37.6 G/DL
  MEAN CORPUSCULAR VOLUME: 64.2 fL
  MONOCYTE: 2.67%
  NEUTROPHIL: 6%
  NUCLEATED RED BLOOD CELLS: 0 /100WBC
  PLATELET COUNT: 1281.67 x10E3/uL
  ALANINE AMINOTRANSFERASE: 42 u/L
  ALBUMIN: 4.4 G/DL
  ALKALINE PHOSPHATASE: 318.67 u/L
  ASPARTATE AMINOTRANSFERASE: 77.33 u/L
  BLOOD UREA NITROGEN: 20 mg/dL
  CARBON DIOXIDE: 25 mmol/L
  CHLORIDE: 103 MEQ/L
  CHOLESTEROL: 78 mg/dL
  CREATINE PHOSPHOKINASE: 190.67 u/L
  CREATININE: 0.23 mg/dL
  GLUCOSE: 178 mg/dL
  LACTATE DEHYDROGENASE: 89.33 u/L
  LIPASE: 9.33 u/L
  PHOSPHORUS: 13.6 mg/dL
  POTASSIUM: 7.08 MEQ/L
  SODIUM: 145.07 MEQ/L
  TOTAL BILIRUBIN: 0.17 mg/dL
  TOTAL PROTEIN: 6.1 G/DL
  URIC ACID: 2.83 mg/dL
[2]
  ABSOLUTE BASOPHIL: 0 CELLS/uL
  ABSOLUTE EOSINOPHIL: 152.67 CELLS/uL
  ABSOLUTE LYMPHOCYTE: 13450.67 CELLS/uL
  ABSOLUTE MONOCYTE: 299.67 CELLS/uL
  ABSOLUTE SEGMENTED NEUTROPHIL: 963.67 CELLS/uL
  BASOPHIL: 0%
  EOSINOPHIL: 1.33%
  ERYTHROCYTE COUNT: 5.55 x10E6/uL
  HEMATOCRIT: 35.3%
  HEMOGLOBIN: 13.53 G/DL
  LEUKOCYTE COUNT: 14.87 x10E3/uL
  LYMPHOCYTE: 90%
  MEAN CORPUSCULAR HEMOGLOBIN: 24.37 pg
  MEAN CORPUSCULAR HEMOGLOBIN CONCENTRATION: 38.33 G/DL
  MEAN CORPUSCULAR VOLUME: 63.6 fL
  MONOCYTE: 2%
  NEUTROPHIL: 6.67%
  NUCLEATED RED BLOOD CELLS: 0.33 /100WBC
  PLATELET COUNT: 1227.33 x10E3/uL
  ALANINE AMINOTRANSFERASE: 55 u/L
  ALBUMIN: 4.43 G/DL
  ALKALINE PHOSPHATASE: 365.33 u/L
  ASPARTATE AMINOTRANSFERASE: 83.67 u/L
  BLOOD UREA NITROGEN: 26 mg/dL
  CARBON DIOXIDE: 23.67 mmol/L
  CHLORIDE: 109 MEQ/L
  CHOLESTEROL: 82 mg/dL
  CREATINE PHOSPHOKINASE: 302.33 u/L
  CREATININE: 0.19 mg/dL
  GLUCOSE: 156.67 mg/dL
  LACTATE DEHYDROGENASE: 189 u/L
  LIPASE: 9.5 u/L
  PHOSPHORUS: 12.1 mg/dL
  POTASSIUM: 6.02 MEQ/L
  SODIUM: 144.45 MEQ/L
  TOTAL BILIRUBIN: 0.0667 mg/dL
  TOTAL PROTEIN: 6.2 G/DL
  URIC ACID: 1.5 mg/dL
[3]
  ABSOLUTE BASOPHIL: 0 CELLS/uL
  ABSOLUTE EOSINOPHIL: 0 CELLS/uL
  ABSOLUTE LYMPHOCYTE: 16308 CELLS/uL
  ABSOLUTE MONOCYTE: 476 CELLS/uL
  ABSOLUTE SEGMENTED NEUTROPHIL: 949.33 CELLS/uL
  BASOPHIL: 0%
  EOSINOPHIL: 0%
  ERYTHROCYTE COUNT: 5.24 x10E6/uL
  HEMATOCRIT: 33.6%
  HEMOGLOBIN: 12.73 G/DL
  LEUKOCYTE COUNT: 17.73 x10E3/uL
  LYMPHOCYTE: 92.33%
  MEAN CORPUSCULAR HEMOGLOBIN: 24.3 pg
  MEAN CORPUSCULAR HEMOGLOBIN CONCENTRATION: 37.9 G/DL
  MEAN CORPUSCULAR VOLUME: 64.13 fL
  MONOCYTE: 2.67%
  NEUTROPHIL: 5%
  NUCLEATED RED BLOOD CELLS: 0 /100WBC
  PLATELET COUNT: 1384.67 x10E3/uL
  ALANINE AMINOTRANSFERASE: 41.67 u/L
  ALBUMIN: 4.4 G/DL
  ALKALINE PHOSPHATASE: 365.67 u/L
  ASPARTATE AMINOTRANSFERASE: 77.33 u/L
  BLOOD UREA NITROGEN: 39.33 mg/dL
  CARBON DIOXIDE: 21.67 mmol/L
  CHLORIDE: 106.33 MEQ/L
  CHOLESTEROL: 96 mg/dL
  CREATINE PHOSPHOKINASE: 290.67 u/L
  CREATININE: 0.26 mg/dL
  GLUCOSE: 165.33 mg/dL
  LACTATE DEHYDROGENASE: 296 u/L
  LIPASE: 10 u/L
  PHOSPHORUS: 12.6 mg/dL
  POTASSIUM: 6.89 MEQ/L
  SODIUM: 144.3 MEQ/L
  TOTAL BILIRUBIN: 0.2 mg/dL
  TOTAL PROTEIN: 5.93 G/DL
  URIC ACID: 1.73 mg/dL
[4]
  ABSOLUTE BASOPHIL: 0 CELLS/uL
  ABSOLUTE EOSINOPHIL: 186 CELLS/uL
  ABSOLUTE LYMPHOCYTE: 17950.67 CELLS/uL
  ABSOLUTE MONOCYTE: 194 CELLS/uL
  ABSOLUTE SEGMENTED NEUTROPHIL: 1069.33 CELLS/uL
  BASOPHIL: 0%
  EOSINOPHIL: 1%
  ERYTHROCYTE COUNT: 5.34 x10E6/uL
  HEMATOCRIT: 32.67%
  HEMOGLOBIN: 12.67 G/DL
  LEUKOCYTE COUNT: 19.4 x10E3/uL
  LYMPHOCYTE: 92.67%
  MEAN CORPUSCULAR HEMOGLOBIN: 23.73 pg
  MEAN CORPUSCULAR HEMOGLOBIN CONCENTRATION: 38.77 G/DL
  MEAN CORPUSCULAR VOLUME: 61.27 fL
  MONOCYTE: 1%
  NEUTROPHIL: 5.33%
  NUCLEATED RED BLOOD CELLS: 0 /100WBC
  PLATELET COUNT: 1450.33 x10E3/uL
  ALANINE AMINOTRANSFERASE: 48.67 u/L
  ALBUMIN: 4.4 G/DL
  ALKALINE PHOSPHATASE: 418.33 u/L
  ASPARTATE AMINOTRANSFERASE: 72 u/L
  BLOOD UREA NITROGEN: 59.67 mg/dL
  CARBON DIOXIDE: 24.33 mmol/L
  CHLORIDE: 110.67 MEQ/L
  CHOLESTEROL: 80.67 mg/dL
  CREATINE PHOSPHOKINASE: 480.33 u/L
  CREATININE: 0.37 mg/dL
  GLUCOSE: 175.33 mg/dL
  LACTATE DEHYDROGENASE: 59.33 u/L
  LIPASE: 9 u/L
  PHOSPHORUS: 11.37 mg/dL
  POTASSIUM: 7.02 MEQ/L
  SODIUM: 146.03 MEQ/L
  TOTAL BILIRUBIN: 0.13 mg/dL
  TOTAL PROTEIN: 5.9 G/DL
  URIC ACID: 1.83 mg/dL
